The subject of test [1] is AcDNA (DNA, duplex) AGATATGCATATCT
In words: NMR (HSQC, NOESY, relaxation dispersion). As to conditions: 125 mM NaCl; 15 mM sodium phosphate, 0.1 mM EDTA, pH 5.3 or 6.8, 8% D2O; two orientations of the chromophore.

Test [2] relates to E12DNA-WC (DNA, duplex) ACACGTAT/ATACGTGT
The test can be described thus: NMR (2D HSQC chemical shift perturbation). As to conditions: 125 mM NaCl; 15 mM sodium phosphate, 0.1 mM EDTA, pH 5.3 or 6.8; room temperature.

Test [3] deals with E12DNA-HG (DNA, duplex) ACGCACGT/ACGTGCGT
In words: NMR (2D NOESY and HSQC). As to conditions: 125 mM NaCl; 15 mM sodium phosphate, 0.1 mM EDTA, pH 5.3.

Test [4] concerns E12DNA (DNA, duplex) ACACGTACGTGT
In words: NMR (HSQC chemical shift perturbation, relaxation dispersion). As to conditions: 125 mM NaCl; 15 mM sodium phosphate, 0.1 mM EDTA, pH 5.3 or 6.8, 8% D2O; slow exchange.

Numbered stars: 1 amine (or outer) side, 2 acyl side, 3 side chain; on linkers, the order of the positions; unused ones are H or OH. Bridge positions count the residues as written; N and C are the ends. Square brackets hold non-standard residues; d marks the D form. Peptide text beside a SMILES is read from it. I, II: the chains in the order shown. Actinocin(9to1) = Cc1c2oc3c(C)ccc(C(=O)[*:1])c3nc-2c(C(=O)[*:2])c(N)c1=O; NMeV = CN[C@H](C(=O)O)C(C)C; Sar = CNCC(=O)O

The text below walks through data of publication PMC5902632 (2018).

`Cc1c2oc3c(C)ccc(C(=O)N[C@@H]4C(=O)N[C@H](C(C)C)C(=O)N5CCC[C@H]5C(=O)N(C)CC(=O)N(C)[C@@H](C(C)C)C(=O)O[C@@H]4C)c3nc-2c(C(=O)N[C@@H]2C(=O)N[C@H](C(C)C)C(=O)N3CCC[C@H]3C(=O)N(C)CC(=O)N(C)[C@@H](C(C)C)C(=O)O[C@@H]2C)c(N)c1=O` (I: T[dV]P[Sar][NMeV] / II: T[dV]P[Sar][NMeV]; ester I:1-I:C, II:1-II:C; linker I:N-II:N via Actinocin(9to1)): in test [1], the binding entry is recorded as “yes”.

Turning to `CSC1SC[C@H]2C(=O)N(C)[C@@H](C(C)C)C(=O)OC[C@@H](NC(=O)c3cnc4ccccc4n3)C(=O)N[C@@H](C)C(=O)N(C)[C@@H]1C(=O)N(C)[C@@H](C(C)C)C(=O)OC[C@@H](NC(=O)c1cnc3ccccc3n1)C(=O)N[C@@H](C)C(=O)N2C` (stereo partly shown), the binding result in test [2], in test [3] and in test [4] was “yes” throughout.
